Data reported in patent publication US20050019746A1, “Apoptosis-related kinase/GPCRs” (EiRx Therapeutics Limited, priority 2003, published 2005).

Tested on: target gene mRNA in U251 cells
Test: Knockdown by RNAi, QPCR, U251 cells
Format: cell-based, human
Conditions: U251, 24 hrs post transfection, relative to missense control
Method: These siRNA oligos are initially tested for efficacy in a cell line in which the gene is expressed for example in the Hela, U251, TF1 or DU145 cell lines. Cells are plated at a density of between 7.5-10×10^4 in each well of a 6 well plate and incubated at 37° C. overnight in DMEM culture medium (1× Dulbeccos modified Eagles medium (Sigma D2554), 0.004% folic acid, 4 mM L-glutamine, 0.37% sodium bicarbonate, 0.1 mM sodium pyruvate) containing 10% fetal calf serum (FCS). 2 μg of duplex siRNA is transfected into cells using DMRIE-C reagent (Invitrogen 10459-014) according to methods described in U.S. Patent Application No. 60/498,488. In brief, to prepare 1 ml of a transfection solution 2 μg of siRNA duplex in added to 1 ml of Optimem (Gibco), to which 8 μl of DMRIE C reagent is added. Transfection mix is added directly to the cells and incubated for 4 hrs at 37° C. Post this 4 hr incubation, transfection solution is removed and cells are refed with fresh culture medium and incubated for a further 24 hrs. An additional medium change is required at this point to minimise toxicity of the transfection procedure. Cells are harvested at 24 or 48 hrs post transfection for analysis of mRNA expression. […]
After DMRIE transfections with siRNA Oligos against the apoptosis associated genes identified herein, or controls, cells are harvested at 24 or 48 hours post transfection as stated previously. […] RNA is quantified by spectrophotometric analysis and 1 μg is reverse transcribed into cDNA using SuperScriptII RNAseH-Reverse Transcriptase (Invitrogen 18064-014). […] QPCR primers are designed to amplify a PCR product of approximately 100 to 300 nucleotides in length from the CDS, following the guidelines outlined in the Quantitect SYBR Green PCR handbook from Qiagen.
Two template standards are used for quantitative PCR assessment of mRNA levels: • 1. A control RPS13 i.e. Ribosomal Protein Sub unit 13 (NM_001017) amplified PCR product diluted to [1000,100,10,1 and 0.1 fg] respectively, used to quantify the level of transcript; • 2. […]

| Substance | % Knockdown by RNAi, U251 |
| --- | --- |
| siRNA P14KB: sense GCUACGGAAGCUGAUCCUCtt, antisense GAGGAUCAGCUUCCGUAGCtt (sense GCUACGGAAGCUGAUCCUCTT; antisense GAGGAUCAGCUUCCGUAGCTT; chemistry not given here) | 36% |
| siRNA NTKL: siRNA duplex, sense UGUGGAGCUGAUGAAGCACtt, antisense GUGCUUCAUCAGCUCCACAtt; same in Tables 9 and 11 (sense UGUGGAGCUGAUGAAGCACTT; antisense GUGCUUCAUCAGCUCCACATT; chemistry not given here) | 37% |
| siRNA Survivin: positive control siRNA, sense GAACUGGCCCUUCUUGGAGtt, antisense CUCCAAGAAGGGCCAGUUCtt (sense GAACUGGCCCUUCUUGGAGTT; antisense CUCCAAGAAGGGCCAGUUCTT; chemistry not given here) [reference compound] | 47% |
